Assay results as given in patent US20240148821A1, “PHARMACEUTICAL USE OF CYCLIC PEPTIDE COMPOUND” (CHUGAI SEIYAKU KABUSHIKI KAISHA, priority 2021, published 2024).
Numbered stars: 1 amine (or outer) side, 2 acyl side, 3 side chain; on linkers, the order of the positions; unused ones are H or OH. Bridge positions count the residues as written; N and C are the ends. Square brackets hold non-standard residues; d marks the D form. Peptide text beside a SMILES is read from it. * marks the point of attachment. hPhe(3,5-F2-4-CF3) = N[C@@H](CCc1cc(F)c(C(F)(F)F)c(F)c1)C(=O)O; hPhe(3-Cl-4-CF3) = N[C@@H](CCc1ccc(C(F)(F)F)c(Cl)c1)C(=O)O; hPhe(3-F,4-CF3) = N[C@@H](CCc1ccc(C(F)(F)F)c(F)c1)C(=O)O; NMePhe(4-CF3) = CN[C@@H](Cc1ccc(C(F)(F)F)cc1)C(=O)O; NMeAbu(4,4,4-F3) = CN[C@@H](CC(F)(F)F)C(=O)O; NMePhe(4-Cl) = CN[C@@H](Cc1ccc(Cl)cc1)C(=O)O; NMePhe(4-Me) = CN[C@@H](Cc1ccc(C)cc1)C(=O)O; NMedβ3hAla = C[C@H](CC(=O)[*:2])N(C)[*:1]; NMeGly(cPent) = CN[C@H](C(=O)O)C1CCCC1; Phe(3-I) = N[C@@H](Cc1cccc(I)c1)C(=O)O; NMeCha = CN[C@@H](CC1CCCCC1)C(=O)O; NMehLeu = CN[C@@H](CCC(C)C)C(=O)O; Hyp = O=C(O)[C@@H]1C[C@@H](O)CN1; NEtLeu = CCN[C@@H](CC(C)C)C(=O)O; NMeAhp(2) = CCCCC[C@H](NC)C(=O)O; NMeChg = CN[C@H](C(=O)O)C1CCCCC1; NMeF = CN[C@@H](Cc1ccccc1)C(=O)O; NMeI = CC[C@H](C)[C@H](NC)C(=O)O; NMeT = CN[C@H](C(=O)O)[C@@H](C)O; N(CH2CH2)2CF2 = FC1(F)CCN(*)CC1; NMeD = CN[C@@H](CC(=O)O)C(=O)O; dNMeD = CN[C@H](CC(=O)O)C(=O)O; NMeL = CN[C@@H](CC(C)C)C(=O)O; NMeV = CN[C@H](C(=O)O)C(C)C; dNMeS = CN[C@H](CO)C(=O)O; Morpholide = C1CN(*)CCO1; NMeA = CN[C@@H](C)C(=O)O; NMeAib = CNC(C)(C)C(=O)O; Nle = CCCC[C@H](N)C(=O)O; Piperidide = C1CCN(*)CC1; Pyrrolidide = C1CCN(*)C1; dNMeA = CN[C@H](C)C(=O)O; Ac5c = NC1(C(=O)O)CCCC1; Aze = O=C(O)[C@@H]1CCN1; Isopentyl = CC(C)CC*; Sar = CNCC(=O)O

Assays:
[1] = molecular target: protein-protein interaction between Kras and SOS1 (biotin-tagged human Kras loaded with GDP, His-tagged human SOS1) (Homo sapiens (Human), UniProt P01116, G12D); test: Protein-protein interaction inhibition between Kras and SOS1 (KrasG12D-SOS PPI) using AlphaScreen; format: biochemical; conditions: AlphaScreen; biotin-tagged human Kras loaded with GDP, His-tagged human SOS1; read-out: KRAS G12D-SOS PPI IC50;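 further: kras produced in E. coli, Ni-coupled donor beads and streptavidin acceptor beads, excitation 680 nm with emission detected at 520–620 nm via singlet oxygen transfer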
[2] = test system: Human pancreatic cancer cell line AsPC-1 (G12D mutation Kras); test: AsPC-1 cell growth inhibition (AsPC-1 CGI); format: cell-based; conditions: read-out: AsPC-1 cell growth inhibition, 50% growth inhibitory concentration (IC50 value); 96 hours, CellTiter-Glo, values classified in ranges
Procedure: Test compounds were serially dilated with dimethyl sulfoxide, and 200 nL was then dispensed to a U-bottom 96-well plate using Labcyte Echo. […] The cell suspension was dispensed to a. plate containing a test compound at 100 μL per well and incubated at 37° C. in a 5% carbon dioxide gas incubator. 96 hours later, 80 μL of CellTiter-Glo (Promega) was added to each well and fluorescence was measured.

Compound	IC50 [1] [nM]	IC50 [2] [nM]
CCCC[C@@H]1NC(=O)[C@H](Cc2cccc(I)c2)NC(=O)CN(C)C(=O)[C@H](Cc2ccc(C)cc2)N(C)C(=O)[C@@H]2CCN2C(=O)[C@H](C)N(C)C(=O)[C@H]([C@@H](C)CC)NC(=O)[C@H](CC(C)C)N(C)C(=O)C[C@@H](C(=O)N2CCCCC2)N(C)C(=O)[C@H](CC(C)C)NC(=O)[C@H]2CCCN2C1=O [Compound 822] ([NMeL]I[NMeA][Aze][NMePhe(4-Me)][Sar][Phe(3-I)][Nle][dP]L[NMeD]-Piperidide; lactam N-11)	150	> 500
CC[C@H](C)[C@@H]1NC(=O)[C@H](CC(C)C)N(C)C(=O)C[C@@H](C(=O)N2CCCCC2)N(C)C(=O)[C@H]([C@@H](C)O)N(C)C(=O)C2(CCCC2)NC(=O)[C@@H]2CCCN2C(=O)[C@H](CCc2ccc(C(F)(F)F)c(Cl)c2)NC(=O)CN(C)C(=O)[C@H](CC2CCCCC2)N(C)C(=O)[C@@H]2CCN2C(=O)[C@H](C)N(C)C1=O [Compound 228] ([NMeL]I[NMeA][Aze][NMeCha][Sar][hPhe(3-Cl-4-CF3)]P[Ac5c][NMeT][NMeD]-Piperidide; lactam N-11)	24	> 500
CC[C@H](C)[C@@H]1NC(=O)[C@H](CC(C)C)N(C)C(=O)C[C@@H](C(=O)N2CCCCC2)N(C)C(=O)[C@H](CCC(C)C)N(C)C(=O)C2(CCCC2)NC(=O)[C@@H]2CCCN2C(=O)[C@H](CCc2ccc(C(F)(F)F)c(Cl)c2)NC(=O)CN(C)C(=O)[C@H](CC2CCCCC2)N(C)C(=O)[C@@H]2CCN2C(=O)[C@H](C)N(C)C1=O [Compound 1776] ([NMeL]I[NMeA][Aze][NMeCha][Sar][hPhe(3-Cl-4-CF3)]P[Ac5c][NMehLeu][NMeD]-Piperidide; lactam N-11)	24	> 500
CC[C@H](C)[C@@H]1NC(=O)[C@H](CC(C)C)N(C)C(=O)C[C@@H](C(=O)N2CCCCC2)N(C)C(=O)[C@H](C2CCCC2)N(C)C(=O)C2(CCCC2)NC(=O)[C@@H]2CCCN2C(=O)[C@H](CCc2ccc(C(F)(F)F)c(Cl)c2)NC(=O)CN(C)C(=O)[C@H](Cc2ccc(C(F)(F)F)cc2)N(C)C(=O)[C@@H]2CCN2C(=O)[C@H](C)N(C)C1=O [Compound 370] ([NMeL]I[NMeA][Aze][NMePhe(4-CF3)][Sar][hPhe(3-Cl-4-CF3)]P[Ac5c][NMeGly(cPent)][NMeD]-Piperidide; lactam N-11)	0.35	≤ 20
CC[C@H](C)[C@@H]1NC(=O)[C@H](CC(C)C)N(C)C(=O)C[C@@H](C(=O)N2CCCCC2)N(C)C(=O)[C@H](C2CCCCC2)N(C)C(=O)C2(CCCC2)NC(=O)[C@@H](COCCC(C)C)N(C)C(=O)[C@H](CCc2ccc(C(F)(F)F)c(Cl)c2)NC(=O)CN(C)C(=O)[C@H](CC2CCCCC2)N(C)C(=O)CN(C)C(=O)CN(C)C1=O [Compound 1436] ([NMeL]I[Sar][Sar][NMeCha][Sar][hPhe(3-Cl-4-CF3)][dNMeS](Isopentyl)[Ac5c][NMeChg][NMeD]-Piperidide; lactam N-11)	39	> 500
CCCC[C@@H]1NC(=O)[C@H](CCc2ccc(C(F)(F)F)c(F)c2)NC(=O)CN(C)C(=O)[C@H](Cc2ccc(Cl)cc2)N(C)C(=O)CN(C)C(=O)CN(C)C(=O)[C@H]([C@@H](C)CC)NC(=O)[C@H](CC(C)C)N(C)C(=O)C[C@@H](C)N(C)C(=O)[C@H](CC(C)C)NC(=O)C(C)(C)N(C)C1=O [Compound 165] (cyclo(I[Sar][Sar][NMePhe(4-Cl)][Sar][hPhe(3-F,4-CF3)][Nle][NMeAib]L[NMedβ3hAla][NMeL]))	41	> 500
CCO[C@@H]1C[C@H]2C(=O)NC3(CCCC3)C(=O)N(C)[C@@H](C3CCCC3)C(=O)N(C)[C@H](C(=O)N3CCCC3)CC(=O)N(C)[C@@H](CC(C)C)C(=O)N[C@@H]([C@@H](C)CC)C(=O)N(C)CC(=O)N(C)CC(=O)N(C)[C@@H](CC3CCCCC3)C(=O)N(C)CC(=O)N[C@@H](CCc3ccc(C(F)(F)F)c(Cl)c3)C(=O)N2C1 [Compound 1370] ([NMeL]I[Sar][Sar][NMeCha][Sar][hPhe(3-Cl-4-CF3)][Hyp](Et)[Ac5c][NMeGly(cPent)][NMeD]-Pyrrolidide; lactam N-11)	0.6	≤ 20
CC(C)CCOC[C@@H]1NC(=O)[C@H](CC(C)C)N(C)C(=O)C[C@@H](C(=O)N2CCCCC2)N(C)C(=O)[C@H](C(C)C)N(C)C(=O)C2(CCCC2)NC(=O)[C@@H]2CCCN2C(=O)[C@H](CCc2ccc(C(F)(F)F)c(Cl)c2)NC(=O)CN(C)C(=O)[C@H](CC2CCCCC2)N(C)C(=O)[C@@H]2CCN2C(=O)[C@H](C)N(C)C1=O [Compound 485] ([NMeL]S(Isopentyl)[NMeA][Aze][NMeCha][Sar][hPhe(3-Cl-4-CF3)]P[Ac5c][NMeV][NMeD]-Piperidide; lactam N-11)	160	> 500
CC[C@H](C)[C@@H]1NC(=O)[C@H]([C@@H](C)O)N(C)C(=O)C[C@@H](C(=O)N2CCCCC2)N(C)C(=O)[C@H](C(C)C)N(C)C(=O)C2(CCCC2)NC(=O)[C@@H]2CCCN2C(=O)[C@H](CCc2ccc(C(F)(F)F)c(Cl)c2)NC(=O)CN(C)C(=O)[C@H](CC2CCCCC2)N(C)C(=O)[C@@H]2CCN2C(=O)[C@H](C)N(C)C1=O [Compound 91] ([NMeT]I[NMeA][Aze][NMeCha][Sar][hPhe(3-Cl-4-CF3)]P[Ac5c][NMeV][NMeD]-Piperidide; lactam N-11)	1.5	> 500
CC[C@H](C)[C@@H]1NC(=O)[C@H](CC(C)C)N(C)C(=O)C[C@@H](C(=O)N(C)C)N(C)C(=O)[C@H]([C@@H](C)CC)N(C)C(=O)C2(CCCC2)NC(=O)[C@@H]2CCCN2C(=O)[C@H](CCc2ccc(C(F)(F)F)c(F)c2)NC(=O)CN(C)C(=O)[C@H](CC2CCCCC2)N(C)C(=O)[C@@H]2CCN2C(=O)[C@H](C)N(C)C1=O [Compound 999] ([NMeL]I[NMeA][Aze][NMeCha][Sar][hPhe(3-F,4-CF3)]P[Ac5c][NMeI][NMeD]-NMe2; lactam N-11)	1.7	≤ 20
CC[C@H](C)[C@@H]1NC(=O)[C@H](CC(C)C)N(CC)C(=O)C[C@@H](C(=O)N2CCOCC2)N(C)C(=O)[C@H](C2CCCC2)N(C)C(=O)C2(CCCC2)NC(=O)[C@@H]2CCCN2C(=O)[C@H](CCc2ccc(C(F)(F)F)c(Cl)c2)NC(=O)CN(C)C(=O)[C@H](CC2CCCCC2)N(C)C(=O)[C@@H]2CCN2C(=O)[C@H](C)N(C)C1=O [Compound 1220] ([NEtLeu]I[NMeA][Aze][NMeCha][Sar][hPhe(3-Cl-4-CF3)]P[Ac5c][NMeGly(cPent)][NMeD]-Morpholide; lactam N-11)	0.64	≤ 20
CCCCC[C@H]1C(=O)N[C@@H]([C@@H](C)CC)C(=O)N(C)[C@@H](C)C(=O)N2CC[C@H]2C(=O)N(C)[C@@H](C2CCCC2)C(=O)N(C)CC(=O)N[C@@H](CCc2ccc(C(F)(F)F)c(Cl)c2)C(=O)N2CCC[C@H]2C(=O)NC2(CCCC2)C(=O)N(C)[C@@H](C2CCCC2)C(=O)N(C)[C@H](C(=O)N2CCOCC2)CC(=O)N1C [Compound 343] ([NMeAhp(2)]I[NMeA][Aze][NMeGly(cPent)][Sar][hPhe(3-Cl-4-CF3)]P[Ac5c][NMeGly(cPent)][NMeD]-Morpholide; lactam N-11)	0.87	≤ 20
CC[C@H](C)[C@@H]1NC(=O)[C@H](CC(C)C)N(C)C(=O)C[C@@H](C(=O)N2CCCC2)N(C)C(=O)[C@H](C2CCCC2)N(C)C(=O)C2(CCCC2)NC(=O)[C@@H]2CCCN2C(=O)[C@H](CCc2ccc(C(F)(F)F)c(Cl)c2)NC(=O)CN(C)C(=O)[C@H](Cc2ccc(C(F)(F)F)cc2)N(C)C(=O)[C@@H]2CCN2C(=O)[C@H](C)N(C)C1=O [Compound 589] ([NMeL]I[NMeA][Aze][NMePhe(4-CF3)][Sar][hPhe(3-Cl-4-CF3)]P[Ac5c][NMeGly(cPent)][NMeD]-Pyrrolidide; lactam N-11)	0.49	≤ 20
CC[C@H](C)[C@@H]1NC(=O)[C@H](C)N(C)C(=O)C[C@@H](C(=O)N2CCCCC2)N(C)C(=O)[C@H](C(C)C)N(C)C(=O)C2(CCCC2)NC(=O)[C@@H](CC(=O)N2CCC(F)(F)CC2)N(C)C(=O)[C@H](CCc2ccc(C(F)(F)F)c(Cl)c2)NC(=O)CN(C)C(=O)[C@H](CC2CCCCC2)N(C)C(=O)CN(C)C(=O)CN(C)C1=O [Compound 1025] ([NMeA]I[Sar][Sar][NMeCha][Sar][hPhe(3-Cl-4-CF3)][dNMeD](N(CH2CH2)2CF2)[Ac5c][NMeV][NMeD]-Piperidide; lactam N-11)	4.3	> 500
CC[C@H](C)[C@@H]1NC(=O)[C@H](C)N(C)C(=O)C[C@@H](C(=O)N2CCCCC2)N(C)C(=O)[C@H](C(C)C)N(C)C(=O)C2(CCCC2)NC(=O)[C@@H]2CCCN2C(=O)[C@H](CCc2ccc(C(F)(F)F)c(Cl)c2)NC(=O)[C@@H](C)N(C)C(=O)[C@H](Cc2ccccc2)N(C)C(=O)[C@@H]2CCN2C(=O)[C@H](C)N(C)C1=O [Compound 1724] ([NMeA]I[NMeA][Aze][NMeF][dNMeA][hPhe(3-Cl-4-CF3)]P[Ac5c][NMeV][NMeD]-Piperidide; lactam N-11)	16	> 500
CCO[C@@H]1C[C@H]2C(=O)NC3(CCCC3)C(=O)N(C)[C@@H](C3CCCCC3)C(=O)N(C)[C@H](C(=O)N3CCCC3)CC(=O)N(C)[C@@H](CC(F)(F)F)C(=O)N[C@@H]([C@@H](C)CC)C(=O)N(C)CC(=O)N(C)CC(=O)N(C)[C@@H](Cc3ccc(C(F)(F)F)cc3)C(=O)N(C)CC(=O)N[C@@H](CCc3cc(F)c(C(F)(F)F)c(F)c3)C(=O)N2C1 [Compound 1271] ([NMeAbu(4,4,4-F3)]I[Sar][Sar][NMePhe(4-CF3)][Sar][hPhe(3,5-F2-4-CF3)][Hyp](Et)[Ac5c][NMeChg][NMeD]-Pyrrolidide; lactam N-11)	0.49	≤ 20
